Test results as given in patent US20210270855A1, “PIP2 AS A MARKER FOR HDL FUNCTION AND CARDIOVASCULAR DISEASE RISK” (The Cleveland Clinic Foundation, priority 2016, published 2021).

Key:
[1] = test system: ABCA1 induced RAW264.7 cells; assay: Cholesterol efflux to apoA1 from ABCA1-induced RAW264.7 cells; format: cell-based, mouse; conditions: for ABCA1-dependent cholesterol efflux to apoA1: RAW264.7, 1 μM inhibitor, apoA1 chase
Experimental: (§1) Cell growth and ABCA1 induction: All cell culture incubations were performed at 37° C. in humidified 5% CO2 incubator. The growth media was Dulbecco's Modified Eagle Medium (DMEM) with 10% fetal calf serum, 100 μg/mL penicillin, 100 μg/mL […]. ABCA1 was induced in […] cells by 16-24 hr incubation with 0.3 mM 8Br-cAMP^34. ABCA1 was induced in BHK cells by 16-24 hr incubation with 10 nM mifepristone^31. Inducers were included in the media during subsequent assays. ABCA1 expression was confirmed by western blot using the AC10 antibody (Santa Cruz Biotech).
Cholesterol efflux assay: On day 1, cells were plated on 24-well plates at a density of 20,000 to 400,000 cells per well. On day 2, the cells were labeled with […] [^3H]cholesterol in DMEM containing 1% FBS. On day 3, the cells when indicated were treated with or without ABCA1 inducers in serum-free DMEM. On day 4 (or day 3 for HEK293 cells and ABCA1 stably transfected cells) the cells were washed and chased for 4-6 hr in serum-free DMEM in the presence or absence of 5 μg/ml apoA1. The radioactivity in the chase media was determined after brief centrifugation to pellet any residual debris. Radioactivity in the cells was determined by extraction in hexane:isopropanol (3:2) with the solvent evaporated in a scintillation vial prior to counting. The percent cholesterol efflux was calculated as 100×(medium dpm)/(medium dpm+cell dpm).
Tmem55b knockdown: The siRNA to mouse Tmem55b (Origene, #SR408149) and scrambled control were transfected in RAW264.7 cells using siTran 1.0 (Origene). The cellular protein extracts were prepared using NP-40 lysis buffer containing protease inhibitors. The knockdown efficacy was determined by western blot using anti Tmem55b antibody (Santa Cruz).

immobilized apoA1 = biological target: T1, immobilized apoA1 (Homo sapiens, UniProt P02647); assay: Surface plasmon resonance, lipid binding to immobilized apoA1; conditions: biotinylated apoA1 on sensor chip; PC at 1 μM
T1 construct: ApoA1 was purified form human plasma^29, and dialyzed against PBS; from tissue; host or cells: human plasma
Experimental: (§2) Surface Plasmon resonance: Binding kinetic of PIP2 with different apolipoproteins was analyzed using a Biacore3000 instrument. Either biotinylated apoA1 or biotinylated PIP2 was immobilized on a streptavidin (SA) sensor chip (GE Healthcare). The immobilized apoA1 or PIP2 was stable over the course of the experiment and baseline drift was <10 response units (RU)/h after the washing with Hepes buffered saline (FIBS) buffer. Different concentrations of apoA1 or PIP2 were injected using the KINJECT procedure at flow-rate of 10 μl/min and dissociation was monitored by injecting FIBS buffer. The injections were performed in triplicate for each ligand concentration. For comparing binding kinetics of PIP2 with apoA1, apoA2 and apoE, these proteins were immobilized by covalent coupling on a CMS sensor chip (GE Healthcare) using EDC-NHS reagents. PIP2 was injected as described above. Corrected response data were fitted with BIAevaluation software version 4.01, and Kd values were calculated.

apoE = biological target: T2, apoE (Homo sapiens, UniProt P02649); assay: Surface plasmon resonance, PIP2 binding to immobilized apoE
T2 construct: purchased Origene TP723016
Experimental: as §2

[2] = test system: ABCA1 expressing RAW264.7 cells; assay: ApoA1 cell binding by flow cytometry, RAW264.7 cells; format: cell-based, mouse; conditions: ABCA1-induced RAW264.7, apoA1 pre-incubated with PIP2 (5:1 mole ratio)
Experimental: as §1
Cell surface PS, PIP2, and apoA1 binding assays via flow cytometry: Cell surface PS levels were determined by flow cytometry after cell scraping in PBS, re-suspension in Annexin V binding buffer, and incubation with AnnexinV-Cy5 (Biovision) at room temperature for 5 minutes in the dark. Cell surface PIP2 levels were determined by flow cytometry by incubation with Alexa647 or FITC labeled anti-PIP2 antibody (Echelon) in phenol red-free, serum-free, DMEM at room temperature for 30 min. Human apoA1 was labeled with Alexa647 (Molecular Probes) on free amines using a 6:1 mole ratio of dye:apoA1. Alexa647-apoA1 binding was determined by flow cytometry after incubation with cells for 45 minutes at room temperature. […] Data was analyzed by Flowjo software and the median relative fluorescent intensities were compared.

apoA1 = apoA1 (Homo sapiens, UniProt P02647); assay: Fluorescence anisotropy, apoA1 binding to bodipy-labeled PIP2; conditions: summary statement in the detailed description; read-out: dissociation constant of apoA1 binding to PIP2
apoA2 = biological target: T3, apoA2 (Homo sapiens, UniProt P02652); assay: Surface plasmon resonance, PIP2 binding to immobilized apoA2
T3 construct: purchased Origene TP721104
Experimental: as §2

T1 sequence (P02647 25-267 limits assumed): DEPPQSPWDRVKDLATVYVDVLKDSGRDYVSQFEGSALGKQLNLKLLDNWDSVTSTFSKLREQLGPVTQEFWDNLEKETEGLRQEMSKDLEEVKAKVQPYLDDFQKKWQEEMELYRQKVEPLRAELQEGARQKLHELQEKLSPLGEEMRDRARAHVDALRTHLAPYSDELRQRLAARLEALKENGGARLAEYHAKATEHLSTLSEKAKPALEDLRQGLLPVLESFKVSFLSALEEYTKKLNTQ
T3 sequence (P02652 19-100): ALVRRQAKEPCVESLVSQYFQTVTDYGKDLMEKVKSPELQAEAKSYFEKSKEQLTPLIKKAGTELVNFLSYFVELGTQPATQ
T2 sequence (P02649 19-317): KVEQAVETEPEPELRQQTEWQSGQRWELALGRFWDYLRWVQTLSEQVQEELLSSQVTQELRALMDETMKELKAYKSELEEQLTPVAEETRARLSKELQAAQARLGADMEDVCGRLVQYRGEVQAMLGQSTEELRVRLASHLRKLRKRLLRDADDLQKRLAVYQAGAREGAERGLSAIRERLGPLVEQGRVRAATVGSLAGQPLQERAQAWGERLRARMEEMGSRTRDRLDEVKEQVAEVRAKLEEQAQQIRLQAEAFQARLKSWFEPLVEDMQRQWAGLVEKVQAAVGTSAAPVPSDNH
Chain of apoA1 (P02647 25-267 limits assumed): as the sequence (P02647 25-267 limits assumed) above

Q: Which “ABCA1-dependent cholesterol efflux to apoA1” value [1] does the source give for `CC(=O)Nc1nc(C)c(-c2ccc(Cl)c(S(=O)(=O)NCCO)c2)s1` [PIK-93] here?
A: decreased

Q: For `CC(C)(C)C(=O)Nc1ccc2c(c1)C(=O)C(=O)c1ccccc1-2` [SF1670], which “ABCA1-dependent cholesterol efflux to apoA1” value [1] is on record?
A: decreased

Q: phosphatidylcholine [PC] was tested. Which “binding to immobilized apoA1 (SPR)” value (immobilized apoA1) did it give?
A: no binding

Q: With `CCCCC/C=C\C/C=C\C/C=C\C/C=C\CCCC(=O)O[C@H](COC(=O)CCCCCCCCCCCCCCCCC)COP(=O)(O)O[C@@H]1[C@H](O)[C@H](O)[C@@H](OP(=O)(O)O)[C@H](OP(=O)(O)O)[C@H]1O` [PIP2, phosphatidylinositol (4,5) bis-phosphate] as the compound, how does the “direct binding to apoE (SPR)” value (apoE) read?
A: direct binding

Q: And the “binding to immobilized apoA1 (SPR)” value (immobilized apoA1)?
A: direct binding

Q: What about the apoA1 binding [2] of the same compound?
A: decreased

Q: And the Kd (apoA1)?
A: ~100 nM

Q: What about the “direct binding to apoA2 (SPR)” value (apoA2) of the same compound?
A: direct binding

Q: What about the “cholesterol efflux to apoA1” value ([1]; ABCA1-induced RAW264.7, apoA1 5 μg/ml pre-incubated with PIP2 (PIP2:apoA1 5:1 mole ratio)) of the same compound?
A: decreased
